According to US20120028921A1, “METHODS AND COMPOSITIONS USING OXIDIZED PHOSPHOLIPIDS” (The Johns Hopkins University, priority 2004, published 2012):
Entries after “also recorded” stand apart in the source; their conditions may differ.

Assays:
[1] = system: human pulmonary endothelial cells (HPAEC); assay: Transendothelial electrical resistance (TER), ECIS system; type: cell-based; details: for effect of pretreatment on OxPAPC-induced TER increase: BHT 5 μM 10 min preincubated with OxPAPC, toxin B 100 ng/ml, Y27632 5 μM, 1 hr; for effect on transendothelial electrical resistance (TER): agent alone, phospholipids up to 20 μg/ml; for co-elution with TER-increasing activity in HPLC-MS of fraction 2: reversed phase HPLC fractions tested on TER; for effect of synthetic fragmented phospholipids on TER: prepared by chemical synthesis
Experimental: Human pulmonary endothelial cells (HPAEC) were cultured and transfected with cDNAs as described previously (Birukov et al., 2002). Lipid oxidation and analysis of oxidation products by positive ion electrospray mass spectrometry (ESI-MS) was performed as described previously (Watson et al., 1997, Leitinger et al. 1999 and, Bochov et al. 2002). Measurements of transendothelial electrical resistance were performed using electrical cell substrate impedance-sensing (ECIS) system as described elsewhere (Garcia et al., 2001 and Birukova et al., 2004). Transient transfections and siRNA-based protein depletion of small GTPases were performed as described elsewhere (Birukov et al. 2002, Birukova et al., 2004 and Birukova et al., 2004a). Rac, Cdc42 and Rho activation assays were performed using assay kits from Upstate Biotechnology (Lake Placid, N.Y.) (Garcia et al., 2001 and Birukova et al., 2004). Subcellular protein fractionation, western blot analyses and densitometric analyses were performed from at least 3 experiments as described (Birukova et al., 2004). Immunofluorescent staining of HPAEC was performed as previously described (Birukov et al., 2002, Birukova et al., 2004). ANOVAs and a post hoc Student-Newman-Keuls test were used to compare the means of two or more different treatment groups. Results were expressed as the mean±SE. Differences between two groups were considered statistically significant with a value of P<0.05.

Erk-1,2 = Erk-1,2 MAP kinase cascade activation, phospho-specific immunoblotting; type: cell-based, human; details: for effect on OxPAPC-induced Erk-1,2 cascade activation/phosphorylation: UO-126 5 μM, genistein 100 μM, PKC peptide inhibitor 20 μM, BHT preincubated with OxPAPC
Experimental: (§1) Western immunoblotting. Protein extracts were separated by SDS-PAGE, transferred to polyvinylidene difluoride (PVDF) membranes (30 V for 18 h or 90 V for 2 h), and the membranes were incubated with specific antibodies of interest. Equal protein loadings were verified by reprobing membranes with anti-Erk, anti-Fax, or anti-paxillin antibodies. Immunoreactive proteins were detected with the enhanced chemiluminescent detection system (ECL) according to the manufacturer's directions (New England BioLabs, Beverly, Mass.). The relative intensities of the protein bands were quantified by scanning densitometry using Image Quant 5.2 (Molecular Dynamics, Piscataway, N.J.) software.
(§2) Activation of MAP kinase pathways and characterization of tyrosine phosphorylation. Activation of MAP kinase cascade was by monitored by western immunoblotting techniques using phosphospecific antibodies, which are described in Materials section and detect activated form of protein kinases of the MAP kinase cascade. Analysis of the total protein tyrosine phosphorylation was performed by immunoblotting with phosphotyrosine antibody.

JNK = JNK MAP kinase phosphorylation, immunoblotting; type: cell-based, human
Experimental: as §1, §2

[2] = system: protein tyrosine phosphorylation; assay: Total protein tyrosine phosphorylation, phosphotyrosine immunoblot; type: cell-based, human; details: for effect on OxPAPC-induced protein tyrosine phosphorylation: genistein 100 μM, BHT preincubated with OxPAPC
Experimental: as §1, §2

p38 = p38 MAP kinase phosphorylation, immunoblotting; type: cell-based, human; details: 20 μg/ml
Experimental: as §1, §2

PKC = PKC activation: phospho-PKC substrate immunoblot and in vitro kinase assay of lysates; type: cell-based, human
Experimental: (§3) Analysis of PKC and PKA activities. After stimulation with OxPAPC (20 μg/ml, 15 min), HPAEC were lysed, cell lysates were clarified by centrifugation (14000 g, 5 min, +4 C.°), and PKA and PKC activities were measured using in vitro kinase assay kits obtained from Promega Corp. (Madison, Wis.) according to manufacturer protocol. Additionally, OxPAPC-induced PKC and PKA activation in HPAEC cultures was determined by immunoblotting of whole cell lysates with phospho-PKC substrate- and phospho-PKA substrate-specific antibodies that recognize PKA- or PKC-phosphorylated sites in the EC endogenous proteins.

PKA = PKA activation: phospho-PKA substrate immunoblot and in vitro kinase assay of lysates; type: cell-based, human; details: phospho-PKA substrate immunoblot
Experimental: as §3

FAK = FAK Tyr576 phosphorylation, immunoblot; type: cell-based, human; details: PP-2 5 μM pretreatment
Experimental: as §1

paxillin = assay: Paxillin Tyr118 phosphorylation, immunoblot; type: cell-based, human; details: PP-2 5 μM pretreatment
Experimental: as §1

[3] = system: human pulmonary endothelial cells (HPAEC); details: literature (Goggel et al. 2004); cited from earlier work
[4] = HPAEC monolayers, thrombin 50 nM

With Cc1cc(C(C)(C)C)c(O)c(C(C)(C)C)c1 [BHT, butylated hydroxytoluene] the “effect of pretreatment on OxPAPC-induced TER increase” value [1] was “did not affect”, the “effect on OxPAPC-induced Erk-1,2 cascade activation/phosphorylation” value (Erk-1,2) was “same levels of Erk-1,2 activation” and the “effect of preincubation on OxPAPC-induced JNK activation” value (JNK; OxPAPC preincubated with BHT) was “same levels of JNK activation”. The “effect on OxPAPC-induced protein tyrosine phosphorylation” value [2] was “did not affect”.
With CCCCCCCCCCCCCC(=O)OC[C@H](COP(=O)([O-])OCC[N+](C)(C)C)OC(=O)CCCCCCCCCCCCC [DMPC, dimyristoyl phosphatidyl choline] the “effect on transendothelial electrical resistance (TER)” value (shortened to “effect … (TER)”) [1, 4] was “did not exhibit significant effects”.
For CCCCC/C=C\C/C=C\C/C=C\C/C=C\CCCC(=O)O[C@H](COC(=O)CCCCCCCCCCCCCCC)COP(=O)([O-])OCC[N+](C)(C)C [PAPC, 1-palmitoyl-2-arachidomoyl-sn-glycero-3-phosphorylcholine], the “effect … (TER)” value [1, 4] was “did not exhibit significant effects”, the “Erk-1,2 activation” value (Erk-1,2; 20 μg/ml) was “had no effect” and the “phosphorylation / activation of p38” value (p38) was “without effect”. For the same compound, the “phosphorylation / activation of JNK” value (JNK; 20 μg/ml) was “without effect”, the protein tyrosine phosphorylation ([2]; 20 μg/ml) was “without effect” and the “PKC-mediated phosphorylation of endogenous substrates” value (PKC; phospho-PKC substrate immunoblot) was “did not significantly increase”. The “PKA-mediated phosphorylation of endogenous substrates / PKA activation” value (PKA) was “did not induce PKA activation”.
With CCCCC/C=C\CC1C=CC(=O)/C1=C/C1OC1CCCC(=O)O[C@H](COC(=O)CCCCCCCCCCCCCCC)COP(=O)([O-])OCC[N+](C)(C)C (stereo partly drawn) [PECPC, 1-palmitoyl-2-(epoxycyclopentenone)-sn-glycero-3-phosphorylcholine] the “co-elution with TER-increasing activity in HPLC-MS of fraction 2” value [1] was “co-eluted with the fraction exhibiting major barrier-protective activity; also recorded: co-eluted with TER increasing activity”.
For CCCCC/C=C\CC1/C(=C\C2OC2CCCC(=O)O[C@H](COC(=O)CCCCCCCCCCCCCCC)COP(=O)([O-])OCC[N+](C)(C)C)C(=O)CC1O (stereo partly drawn) [PEIPC, 1-palmitoyl-2-(epoxyisoprostane E2)-sn-glycero-3-phosphocholine], the “co-elution with TER-increasing activity in HPLC-MS of fraction 2” value [1] was “co-eluted with TER increasing activity”.
With CCCCCCCCCCCCCCCC(=O)OC[C@H](COP(=O)([O-])OCC[N+](C)(C)C)OC(=O)CCCC(=O)O [PGPC] the “effect of synthetic fragmented phospholipids on TER” value (from here on “effect … on TER”) [1] was “significantly and concentration-dependently decreased TER”.
In the case of CCCCC/C=C\C/C=C\CCCCCCCC(=O)OC(COC(=O)CCCCCCCCCCCCCCC)COP(=O)([O-])OCC[N+](C)(C)C (stereo not drawn) [PLPC, palmitoyl-linoleate phosphatidyl choline], the “effect … (TER)” value [1, 4] was “did not exhibit significant effects”.
With CCCCCCCCCCCCCCCC(=O)OC[C@H](COP(=O)([O-])OCC[N+](C)(C)C)OC(=O)CCCC=O [POVPC] the “effect … on TER” value [1] was “significantly and concentration-dependently decreased TER”.
For CC(C)(C)n1nc(-c2ccc(Cl)cc2)c2c(N)ncnc21 [PP-2], the “effect on OxPAPC-induced FAK phosphorylation” value (FAK) was “attenuated” and the “effect on OxPAPC-induced paxillin phosphorylation” value (paxillin) was “attenuated”.
In the case of CCCCCCCCCCCCC/C=C/[C@@H](O)[C@@H](N)COP(=O)(O)O [S1P, sphingosine 1-phosphate], the “concentration giving maximal barrier protective effect” value ([1]; HPAEC monolayers) was 1 µM and the “effect … (TER)” value [1, 4] was “rapid concentration-dependent TER increase”.
For N#CC(=C(/N)Sc1ccccc1N)/C(C#N)=C(/N)Sc1ccccc1N [UO-126], the “effect on OxPAPC-induced Erk-1,2 cascade activation/phosphorylation” value (Erk-1,2) was “completely abolished”.
For C[C@@H](N)[C@H]1CC[C@H](C(=O)Nc2ccncc2)CC1 [Y27632], the “effect of pretreatment on OxPAPC-induced TER increase” value [1] was “not”.
In the case of CN(C)CCCn1cc(C2=C(c3c[nH]c4ccccc34)C(=O)NC2=O)c2ccccc21 [bisindolmaleimide I], the “effect on OxPAPC-induced PKC activity” value (PKC; in vitro kinase assay, preincubation 1 hour) was “attenuated OxPAPC-induced PKC activation to a lesser extent”.
With O=c1c(-c2ccc(O)cc2)coc2cc(O)cc(O)c12 [genistein] the “effect on OxPAPC-induced Erk-1,2 cascade activation/phosphorylation” value (Erk-1,2) was “attenuated” and the “effect on OxPAPC-induced protein tyrosine phosphorylation” value [2] was “abolished”.
For lysoPC, the “effect … on TER” value [1] was “significantly and concentration-dependently decreased TER”.
In the case of platelet activating factor [PAF], the “barrier effect compared with OxPAPC” value [3] is listed as “does not mimic barrier-protective OxPAPC effects”.
In the case of thrombin, the “effect … (TER)” value [1, 4] was “abrupt decrease in TER” and the “TER recovery time after maximal TER decline” value ([1]; thrombin 50 nM, with or without OxPAPC 20 μg/ml, five experiments) was 115 min.
